Experiment: Intrinsic pH of ceftolozane in solution
Type: physicochemical
Conditions: solution (2%)
Method: A formulation close to physiologic pH was targeted. This necessitates an alkalizing agent due to intrinsic pH 1.92 of ceftolozane in solution (2%). The initial study of alkalizing agents included sodium hydroxide, L-arginine, tris, sodium bicarbonate, meglumine, diethanolamine, and triethanolamine. Samples containing 100 mg ceftolozane sulfate, 22.9 mg sodium chloride, 200 mg maltose, and 2 mg citric acid anhydrous were prepared and adjusted to about pH 4. The samples were lyophilized and powders stored at 70° C. for 3 days, 60° C. for 3, 6 and 9 days and at 40° C. for one month. The stored samples were then analyzed for ceftolozane content.

## Cn1c(N)c(NC(=O)NCCN)c[n+]1CC1=C(C(=O)[O-])N2C(=O)[C@@H](NC(=O)/C(=N\OC(C)(C)C(=O)O)c3nsc(N)n3)[C@H]2SC1 [ceftolozane]
  intrinsic pH of ceftolozane in solution: 1.92

Reference: patent US20140274992A1, “CEFTOLOZANE PHARMACEUTICAL COMPOSITIONS” (Cubist Pharmaceuticals, Inc., priority 2013, published 2014)
